≈ marks a conversion by molar mass, not a printed value. Read-outs that look alike come from different tables or passages of the source.
Tests used:
[1] = format: in vitro ADME
Source text: Still another advantage of the compounds of this invention is that they are not inactivated in the internal organs of the body. For example, when the compounds of this invention and cephalotin are each homogenized with internal organs, the compounds of this invention are not decomposed while cephalotin is decomposed.

Shigella sonnei II 37148 = assay: MIC against bacteria (Table I), strain (12); format: cell-based; conditions: II37148; (12) Shigella sonnei II 37148; read-out: MIC
Source text: (§1) Now, for illustrating the excellent pharmacological effects of the compounds of this invention, the values of MIC (γ/ml.) of the compounds against various bacteria are shown in Table 1, in which the compounds of this invention used are shown by example numbers.

[2] = system: Pseudomonas aeruginosa ATCC 8689; assay: MIC against bacteria (Table I), strain (4); format: cell-based; conditions: ATCC8689
Source text: as §1
(4) Pseudomonas aeruginosa ATCC 8689

[3] = Residual antibacterial activity after incubation with 90% plasma (Table 4); format: in vitro ADME, male Sprague-Dowley rat; conditions: 90% rat plasma; for remaining at 0.25 h / remaining at 0.5 h / remaining at 1.5 h: 90% plasma; for remaining at 0.25 h: 15 minute; for remaining at 0.5 h: 30 minute; for remaining at 1.5 h: 90 minute; for Residual activity: 0 minute
Description: (§2) The relation between the reaction period of time and the antibacterial activity (residual activity, %) when these compounds are incubated with the plasma and the liver homogenate of a male Sprague-Dowley rat is shown in Table 4. The residual antibacterial activity was measured by a thin-layer cup method according to Bacillus subtilis ATCC 6633.
A*Residual activity (%) when incubated with 90% plasma.

[4] = system: β-lactamase isolated from Pseudomonas aeruginosa 21; assay: Resistance to β-lactamase: amount of unaltered test sample (Table 3); format: biochemical; conditions: initial concentration 100γ/ml
Source text: For example, the relation between the amount (γ/ml) of an unaltered test sample at an initial concentration of the sample 100γ/ml against β-lactamase isolated from Pseudomonas aeruginosa 21 at various dilutions of the enzyme were investigated.

[5] = system: Escherichia coli kauffmann 0-1; assay: MIC against bacteria (Table I), strain (7); format: cell-based; conditions: Escherichia coli
Source text: as §1
(7) Escherichia coli kauffmann 0-1

Salmonella typhi H901 W = assay: MIC against bacteria (Table I), strain (9); format: cell-based; conditions: Salmonella enterica, TYPHI
Source text: as §1
(9) Salmonella typhi H901 W

Staphylococcus Onuma = assay: MIC against bacteria (Table I), strain (18); format: cell-based
Source text: as §1
(18) Staphylococcus Onuma

Salmonella enteritidis = assay: MIC against bacteria (Table I), strain (10); format: cell-based; conditions: Salmonella enterica, ENTERITIDIS
Source text: as §1
(10) Salmonella enteritidis

[6] = system: Staphylococcus aureus 209P; assay: MIC against bacteria (Table I), strain (16); format: cell-based
Source text: as §1
(16) Staphylococcus aureus 209P

[7] = system: Pseudomonas aeruginosa 99 (Gentamycin resistant); assay: MIC against bacteria (Table I), strain (5); format: cell-based
Source text: as §1
(5) Pseudomonas aeruginosa 99 (Gentamycin resistant)

[8] = system: Staphylococcus Shimanishi; assay: MIC against bacteria (Table I), strain (17); format: cell-based; conditions: Staphylococcus
Source text: as §1
(17) Staphylococcus Shimanishi

[9] = system: Shigella flexneri 2a 1675; assay: MIC against bacteria (Table I), strain (11); format: cell-based; conditions: 2A1675; (11) Shigella flexneri 2a 1675; read-out: MIC
Source text: as §1

[10] = Residual antibacterial activity after incubation with 10% liver homogenate (Table 4); format: in vitro ADME, male Sprague-Dowley rat; conditions: for remaining at 0.25 h / remaining at 0.5 h / remaining at 1.5 h: 10% liver homogenate
Description: as §2
B*Residual activity (%) when incubated with 10% liver homogenate.

Proteus vulgaris 0X 19US = assay: MIC against bacteria (Table I), strain (2); format: cell-based; conditions: 0X19US
Source text: as §1
(2) Proteus vulgaris 0X 19US

[11] = system: Klebsiella pneumoniae ATCC 10031; assay: MIC against bacteria (Table I), strain (8); format: cell-based; conditions: Klebsiella pneumoniae, ATCC10031
Source text: as §1
(8) Klebsiella pneumoniae ATCC 10031

[12] = system: Bacillus subtilis ATCC 6633; assay: MIC against bacteria (Table I), strain (14); format: cell-based; conditions: ATCC6633
Source text: as §1
(14) Bacillus subtilis ATCC 6633

[13] = system: Proteus mirabilis IXM OM-19; assay: MIC against bacteria (Table I), strain (3); format: cell-based; conditions: IXMOM19; (3) Proteus mirabilis IXM OM-19; read-out: MIC
Source text: as §1
(3) Proteus mirabilis IXM OM-19

[14] = system: Bacillus megatherium 10778; assay: MIC against bacteria (Table I), strain (13); format: cell-based; conditions: (13) Bacillus megatherium 10778; read-out: MIC
Source text: as §1

[15] = system: Psuedomonas ovalis IMA 1002; assay: MIC against bacteria (Table I), strain (6); format: cell-based; conditions: (6) Psuedomonas ovalis IMA 1002; read-out: MIC
Source text: as §1
(6) Psuedomonas ovalis IMA 1002

Proteus vulgaris OXK US = assay: MIC against bacteria (Table I), strain (1); format: cell-based; conditions: (1) Proteus vulgaris OXK US; read-out: MIC
Source text: as §1
(1) Proteus vulgaris OXK US

[16] = Solubility of salts in water (Table 2); format: physicochemical; conditions: disodium salt, water, showing pH 7.4; read-out: Solubility: disodium salt dissolved in water in an amount of
Source text: An advantage of the compounds of this invention is that the salts, for example, sodium salts of these compounds are readily soluble in water at pH of living bodies, which makes them suitable for injections at high concentration. The solubility of these compounds are illustrated in Table 2 together with a control example.

[17] = system: Micrococcus flavus ATCC 10240; assay: MIC against bacteria (Table I), strain (15); format: cell-based; conditions: Micrococcus flavus, ATCC10240
Source text: as §1
(15) Micrococcus flavus ATCC 10240

Compound | MIC (Shigella sonnei II 37148) [µg/mL] | remaining at 0.25 h [3] [%] | remaining at 0.5 h [3] [%] | remaining at 1.5 h [3] [%] | Residual activity [3] [%] | Amount of unaltered test sample ([4]; β-lactamase dilution ×2) [µg/mL] | Amount of unaltered test sample ([4]; β-lactamase dilution ×4) [µg/mL] | Amount of unaltered test sample ([4]; β-lactamase dilution ×8) [µg/mL] | Amount of unaltered test sample ([4]; β-lactamase dilution ×16) [µg/mL] | Amount of unaltered test sample ([4]; β-lactamase dilution ×32) [µg/mL] | Amount of unaltered test sample ([4]; β-lactamase dilution ×64) [µg/mL] | Amount of unaltered test sample ([4]; β-lactamase dilution ×128) [µg/mL] | Amount of unaltered test sample ([4]; β-lactamase dilution ×256) [µg/mL] | Amount of unaltered test sample ([4]; β-lactamase dilution ×512) [µg/mL] | Amount of unaltered test sample ([4]; β-lactamase dilution ×1024) [µg/mL] | MIC [5] [µg/mL] | MIC (Salmonella typhi H901 W) [µg/mL] | MIC (Salmonella enteritidis) [µg/mL] | MIC [8] [µg/mL] | MIC [9] [µg/mL] | further results
CC(=O)OCC1=C(C(=O)O)N2C(=O)[C@@H](NC(=O)Cc3cccs3)[C@H]2SC1 [Cephalotin, reference compound] | 6.25 (≈ 15.8 µM) | 87 | 66 | 36 | 100 | 0 | 0 | 0 | 0 | 2.6 | 11.8 | 46.8 | 81.6 | 100 | 100 | 3.13 (≈ 7.9 µM) | 1.56 (≈ 3.93 µM) | 0.39 (≈ 0.984 µM) | 0.39 (≈ 0.984 µM) | 6.25 (≈ 15.8 µM) | Decomposition when homogenized with internal organs [1]: decomposed; MIC ([2]; Pseudomonas aeruginosa): > 100 µg/mL; MIC (Staphylococcus Onuma; Staphylococcus): 0.39 µg/mL (≈ 0.984 µM); MIC ([6]; Staphylococcus aureus, 209P): 0.19 µg/mL (≈ 0.479 µM); MIC ([7]; Pseudomonas aeruginosa): > 100 µg/mL; Residual activity ([10]; rat, 0 min): 100%; remaining at 0.25 h ([10]; rat): 17.2%; remaining at 0.5 h ([10]; rat): 12.2%; remaining at 1.5 h ([10]; rat): 12.6%; MIC (Proteus vulgaris 0X 19US; Proteus vulgaris): 12.5 µg/mL (≈ 31.5 µM); MIC [11]: 0.78 µg/mL (≈ 1.97 µM); MIC ([12]; Bacillus subtilis): < 0.09 µg/mL
O=C(O)CSc1nnc(SCC2=C(C(=O)O)N3C(=O)[C@@H](NC(=O)[C@H](NC(=O)c4cnccc4O)c4ccccc4)[C@H]3SC2)s1 [Example 4, 7-[D-α-(4-hydroxynicotinoylamido)-α-phenylacetamido]-3-(5-carboxymethylthio-1,3,4-thiadiazol-2-yl)thiomethyl-Δ^3-cephem-4-carboxylic acid] | 3.13 (≈ 4.64 µM) | 97 | 93.9 | 103 | 100 | 0 | 29.6 | 61.0 | 100 | 100 | 100 | 100 | 100 | 100 | 100 | 3.13 (≈ 4.64 µM) | 1.56 (≈ 2.31 µM) | 0.39 (≈ 0.578 µM) | 3.13 (≈ 4.64 µM) | 0.78 (≈ 1.16 µM) | MIC [13]: 0.39 µg/mL (≈ 0.578 µM); MIC ([2]; (4) Pseudomonas aeruginosa ATCC 8689, read-out: MIC): 12.5 µg/mL (≈ 18.5 µM); MIC [14]: 0.19 µg/mL (≈ 0.282 µM); MIC [15]: 6.25 µg/mL (≈ 9.26 µM); MIC (Staphylococcus Onuma; (18) Staphylococcus Onuma, read-out: MIC): 6.25 µg/mL (≈ 9.26 µM); MIC ([6]; (16) Staphylococcus aureus 209P, read-out: MIC): 0.78 µg/mL (≈ 1.16 µM); MIC ([7]; (5) Pseudomonas aeruginosa 99 (Gentamycin resistant), read-out: MIC): 6.25 µg/mL (≈ 9.26 µM); MIC (Proteus vulgaris OXK US): < 0.09 µg/mL; remaining at 0.25 h ([10]; 10% rat liver homogenate, 15 minute, read-out: Residual activity): 93.5%; remaining at 0.5 h ([10]; 10% rat liver homogenate, 30 minute, read-out: Residual activity): 91.3%; remaining at 1.5 h ([10]; 10% rat liver homogenate, 90 minute, read-out: Residual activity): 102%; Residual activity ([10]; 10% rat liver homogenate, 0 minute): 100%; MIC (Proteus vulgaris 0X 19US; (2) Proteus vulgaris 0X 19US, read-out: MIC): 0.19 µg/mL (≈ 0.282 µM); MIC [11]: 3.13 µg/mL (≈ 4.64 µM); MIC ([12]; (14) Bacillus subtilis ATCC 6633, read-out: MIC): 0.19 µg/mL (≈ 0.282 µM); solubility [16]: > 200 mg/mL; MIC [17]: 3.13 µg/mL (≈ 4.64 µM)
